In ChEMBL document CHEMBL2331098, “Unprecedented polyketides from a marine sponge-associated Stachylidium sp” (J Nat Prod, 2013) one finds Activity data, which are given here for 1 compound.

The source made the active and inactive calls. No cut-off for these calls is given here.

Assay [1] relates to Mycobacterium tuberculosis. In words: Antimicrobial activity against antibiotic-resistant Mycobacterium tuberculosis R46 at 50 ug/ml disc level. The format is functional, organism-based.
The test system of assay [2] is Mycobacterium tuberculosis. Nature of the assay: Antimicrobial activity against antibiotic-resistant Mycobacterium tuberculosis MTB72 at 50 ug/ml disc level. The format is functional, organism-based.

Take `COCc1c(C(C)O)cc(O)c(C)c1OC` (configuration not stated): the result in assay [1] and in assay [2] was inactive.
